Experimental data from patent US20230414607A1, “METHODS OF TREATMENT” (BOW RIVER LLC, priority 2017, published 2023).
Read-outs that look alike come from different tables or passages of the source.

What was measured:
[1] = AUC and Cmax target safe levels of CYP3A4 substrate drugs (Table 1)
From the text: In various embodiments, the “Target safe levels” are non-limiting examples of the upper limit of fold change or percent of baseline where in some embodiments the benefits of treating the patient for the condition or disease for which the CYP3A4 substrate drug is indicated outweigh the risks associated with the effects of a drug-drug interaction. […] For purposes of the present methods, the blood plasma levels measured during co-administration of the CYP3A4 substrate drug with […] may be used to estimate the posaconazole DDI decay curve, e.g., using equation 1.

CYP3A4 = CYP3A4 (Homo sapiens, UniProt P08684); conditions: cited from earlier work
CYP3A4, sequence (P08684 whole entry): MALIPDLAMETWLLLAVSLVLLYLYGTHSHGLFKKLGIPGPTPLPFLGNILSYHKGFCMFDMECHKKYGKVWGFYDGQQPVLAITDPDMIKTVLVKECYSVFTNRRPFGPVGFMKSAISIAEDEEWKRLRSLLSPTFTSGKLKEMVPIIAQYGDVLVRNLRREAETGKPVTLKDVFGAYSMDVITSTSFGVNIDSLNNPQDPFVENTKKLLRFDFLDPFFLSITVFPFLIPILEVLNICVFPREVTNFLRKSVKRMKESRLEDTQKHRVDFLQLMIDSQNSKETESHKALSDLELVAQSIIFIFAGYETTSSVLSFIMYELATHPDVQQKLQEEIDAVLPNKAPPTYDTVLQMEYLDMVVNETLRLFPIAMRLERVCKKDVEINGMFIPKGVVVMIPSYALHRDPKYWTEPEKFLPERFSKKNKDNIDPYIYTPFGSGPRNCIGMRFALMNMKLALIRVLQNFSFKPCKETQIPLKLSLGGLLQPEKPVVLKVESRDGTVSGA

[2] = co-administered with a strong CYP3A4 inhibitor (posaconazole, itraconazole, ritonavir, or ketoconazole)
[3] = upper limit where benefits outweigh risks, approximation, can vary by about ±25%

SMILES | AUC co-administration levels, Fold change (CYP3A4; in vivo) | AUC co-administration levels, Percent of baseline (CYP3A4; in vivo) | Cmax co-administration levels, Fold change (CYP3A4; in vivo) | Cmax co-administration levels, Percent of baseline (CYP3A4; in vivo) | other results
CCN1CCN(Cc2ccc(Nc3ncc(F)c(-c4cc(F)c5nc(C)n(C(C)C)c5c4)n3)nc2)CC1 [abemaciclib] | 16 fold | 1600% | – | – | AUC target safe level, Fold change ([1]; human): 1.3 fold; AUC target safe level, Percent of baseline ([1]; human): 130%
CC#CC(=O)N1CCC[C@H]1c1nc(-c2ccc(C(=O)Nc3ccccn3)cc2)c2c(N)nccn12 [acalabrutinib] | 5.1 fold | 510% | 3.9 fold | 390% | AUC target safe level, Fold change ([1]; human): 2.0 fold; AUC target safe level, Percent of baseline ([1]; human): 200%; Cmax target safe level, Fold change ([1]; human): 2.0 fold; Cmax target safe level, Percent of baseline ([1]; human): 200%
COc1cc(Nc2c(C#N)cnc3cc(OCCCN4CCN(C)CC4)c(OC)cc23)c(Cl)cc1Cl [bosutinib] | 2 fold | 200% | 1.5 fold | 150% | –
COc1cc(N2CCC(N3CCN(C)CC3)CC2)ccc1Nc1ncc(Cl)c(Nc2ccccc2P(C)(C)=O)n1 [brigatinib] | 2.01 fold | 201% | 1.21 fold | 121% | –
CO[C@H]1C(=O)[C@]2(C)[C@@H](OC)C[C@H]3OC[C@@]3(OC(C)=O)[C@H]2[C@H](OC(=O)c2ccccc2)[C@]2(O)C[C@H](OC(=O)[C@H](O)[C@@H](NC(=O)OC(C)(C)C)c3ccccc3)C(C)=C1C2(C)C [cabazitaxel] | 1.25 fold | 125% | – | – | –
O=C(c1ccc(F)c(F)c1Nc1ccc(I)cc1F)N1CC(O)([C@@H]2CCCCN2)C1 [cobimetinib] | 6.7 fold | 670% | 3.2 fold | 320% | –
CC(C)(C)c1nc(-c2cccc(NS(=O)(=O)c3c(F)cccc3F)c2F)c(-c2ccnc(N)n2)s1 [dabrafenib] | 1.71 fold | 171% | – | – | –
COC(=O)N[C@H](C(=O)N1CCC[C@H]1c1nc(-c2ccc3c(c2)O[C@@H](c2ccccc2)n2c-3cc3cc(-c4c[nH]c([C@@H]5CCCN5C(=O)[C@@H](NC(=O)OC)C(C)C)n4)ccc32)c[nH]1)C(C)C [elbasvir] | EBR: 1.8; fold | 180%; | 1.29; fold | 129%; | –
COC(=O)N[C@@H](C)CNc1nccc(-c2cn(C(C)C)nc2-c2cc(Cl)cc(NS(C)(=O)=O)c2F)n1 [encorafenib] | 3 fold | 300% | 1.45 fold | 145% | elevation of baseline AUC when coadministered with posaconazole (percent of baseline) (CYP3A4; in vivo): 300%
O=c1[nH]c2ccccc2n1CCN1CCN(c2cccc(C(F)(F)F)c2)CC1 [flibanserin] | 1.4 fold | 140% | 1.1 fold | 110% | –
CCC(=O)O[C@]1(C(=O)SCF)[C@H](C)C[C@H]2[C@@H]3C[C@H](F)C4=CC(=O)C=C[C@]4(C)[C@@]3(F)[C@@H](O)C[C@@]21C [fluticasone propionate] | – | – | – | – | AUC co-administration levels, Fold change (CYP3A4; [2]): 1.9; fold; AUC co-administration levels, Percent of baseline (CYP3A4; [2]): 190%;
C=C[C@@H]1C[C@]1(NC(=O)[C@@H]1C[C@@H]2CN1C(=O)[C@H](C(C)(C)C)NC(=O)O[C@@H]1C[C@H]1CCCCCc1nc3ccc(OC)cc3nc1O2)C(=O)NS(=O)(=O)C1CC1.O [grazoprevir] | GZR: 3.02 fold | 302% | 1.13 fold | 113% | –
COc1cc2c(cc1OC)CC(=O)N(CCCN(C)C[C@H]1Cc3cc(OC)c(OC)cc31)CC2 [ivabradine] | 7 fold | 700% | 3.25 fold | 325% | AUC target safe level, Fold change ([1]; human): 2.1 fold; AUC target safe level, Percent of baseline ([1]; human): 210%; Cmax target safe level, Fold change ([1]; human): 1.6 fold; Cmax target safe level, Percent of baseline ([1]; human): 160%
N#Cc1ccnc(N2C(=O)CC[C@H]2C(=O)N(c2cncc(F)c2)[C@H](C(=O)NC2CC(F)(F)C2)c2ccccc2Cl)c1 [ivosidenib] | 2.69 fold | 269% | – | – | AUC target safe level, Fold change ([1]; human): 1.73 fold; AUC target safe level, Percent of baseline ([1]; human): 173%; Cmax target safe level, Fold change ([1]; human): 1.52 fold; Cmax target safe level, Percent of baseline ([1]; human): 152%
O=C(Nc1cnn2ccc(N3CCC[C@@H]3c3cc(F)ccc3F)nc12)N1CC[C@H](O)C1 [larotrectinib] | 4.3 fold | 430% | 2.8 fold | 280% | –
C[C@H]1Oc2cc(cnc2N)-c2c(nn(C)c2C#N)CN(C)C(=O)c2ccc(F)cc21 [lorlatinib] | 1.42 fold | 142% | 1.24 fold | 124% | –
C=CCN1CC[C@]23c4c5ccc(O)c4O[C@H]2[C@@H](OCCOCCOCCOCCOCCOCCOCCOC)CC[C@@]3(O)[C@H]1C5 [naloxegol] | – | – | – | – | AUC target safe level, Fold change [1, 3]: 3.41 fold; AUC target safe level, Percent of baseline [1, 3]: 341%; Cmax target safe level, Fold change [1, 3]: 2.86 fold; Cmax target safe level, Percent of baseline [1, 3]: 286%; AUC co-administration levels, Fold change (CYP3A4; [2]): 12.85 fold; AUC co-administration levels, Percent of baseline (CYP3A4; [2]): 1285%; Cmax co-administration levels, Fold change (CYP3A4; [2]): 9.58 fold; Cmax co-administration levels, Percent of baseline (CYP3A4; [2]): 958%
Cc1cn(-c2cc(NC(=O)c3ccc(C)c(Nc4nccc(-c5cccnc5)n4)c3)cc(C(F)(F)F)c2)cn1 [nilotinib] | 3 fold | 300% | – | – | –
O=C(c1cc(Cc2n[nH]c(=O)c3ccccc23)ccc1F)N1CCN(C(=O)C2CC2)CC1 [olaparib] | 2.2 fold | 220% | 1.1 fold | 110% | –
CNC(=O)c1cc(Oc2ccc(NC(=O)Nc3ccc(Cl)c(C(F)(F)F)c3)c(F)c2)ccn1 [regorafenib] | 1.33 fold | 133% | – | – | –
CN(C)C(=O)c1cc2cnc(Nc3ccc(N4CCNCC4)cn3)nc2n1C1CCCC1 [ribociclib] | 3.2 fold | 320% | 1.7 fold | 170% | –
N#C[C@@H]1C[C@@H]2C[C@@H]2N1C(=O)[C@@H](N)C12CC3CC(CC(O)(C3)C1)C2 [saxagliptin] | 3.67 fold | 367% | 2.44 fold | 244% | –
COc1cc2c(cc1OC)[C@H]1C[C@@H](OC(=O)[C@@H](N)C(C)C)[C@H](CC(C)C)CN1CC2 [valbenazine] | – | – | – | – | AUC target safe level, Fold change ([1]; human): val: 2.2 fold; AUC target safe level, Percent of baseline ([1]; human): val: 220%; Cmax target safe level, Fold change ([1]; human): val: 1.6 fold; Cmax target safe level, Percent of baseline ([1]; human): val: 160%
CC1(C)CCC(CN2CCN(c3ccc(C(=O)NS(=O)(=O)c4ccc(NCC5CCOCC5)c([N+](=O)[O-])c4)c(Oc4cnc5[nH]ccc5c4)c3)CC2)=C(c2ccc(Cl)cc2)C1 [venetoclax] | 1.78 fold | 178% | 1.06 fold | 106% | –
